The source of these data is article PMC6355697, “Binding Specificity of Native Odorant-Binding Protein Isoforms Is Driven by Phosphorylation and O-N-Acetylglucosaminylation in the Pig Sus scrofa” (Frontiers in Endocrinology, 2019).

Read-outs that look alike come from different tables or passages of the source. Bounds are passed on as bounds.

The subject of one assay is OBP-Pichia-iso3. On the set-up: method as in PMID 20589419. The following applies: OBP-Pichia-iso3, recombinant, phosphorylated only; cited from earlier work.
Assay [1] concerns the target T1, OBP-native-iso2 (Sus scrofa, UniProt P81245).
T1 construct: Proteins were gently extracted from RM of pre-pubertal males of S. scrofa; from tissue; host or cells: RM (respiratory mucosa) extract of pre-pubertal male pigs, purified by two rounds of anion-exchange HPLC
T1 sequence (P81245 1-157): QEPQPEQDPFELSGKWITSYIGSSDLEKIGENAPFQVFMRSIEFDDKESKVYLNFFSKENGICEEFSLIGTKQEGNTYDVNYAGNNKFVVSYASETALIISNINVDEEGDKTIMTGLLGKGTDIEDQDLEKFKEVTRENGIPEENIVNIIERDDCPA
In words: Competitive fluorescence binding assay with AMA as probe. The note with it: for IC50: OBP-native-iso2 2.5 μM saturated with 3.75 μM AMA, competitor 0 to 6 μM; for Kd: calculated dissociation constant from AMA competition. As for the experimental part: (§1) Androstenone (3-keto-5α, 16-androstene), androstenol (3α-hydroxy-5α-androst-16-ene), testosterone (17β-hydroxy-3-oxo-4-androstene), palmitic acid (hexadecanoic acid), myristic acid (tetradecanoic acid), and AMA (1-aminoanthracene) were purchased from Sigma-Aldrich. UV-visible spectra were recorded on a Cary-100 double beam spectrometer (Varian) with a cell of 0.5 cm path length. The protein concentration was calculated by UV-visible spectroscopy, by using the molar extinction coefficient of 11,740 M^−1cm^−1 for OBP (calculated by the software “ProtParam tool” at www.expasy.org) at the maximum wavelength of absorption (280 nm). Steady state fluorescence measurements were performed on a Fluoromax-3 (Jobin-Yvon) spectrofluorimeter using a micro quartz cell (0.5 cm light-path) with a reflecting window. 1-Aminoantracene (AMA) was used as a fluorescent probe. The experimental conditions and data treatment have been described previously ([17]). The dissociation constant (Kd-AMA) of the OBP-AMA complex was calculated from the binding curve by fitting the experimental data with the use of the computer program Origin 7.5 (OriginLab Corporation). The affinities of the five ligands were measured in a competitive binding assay with AMA as the fluorescent probe. AMA was dissolved in 100% ethanol to yield a 1 mM stock solution. For protein titration, aliquots of AMA were successively added to the protein at 1 or 2.5 μM in 50 mM Tris buffer (pH 7.8) and emission spectra were acquired after a 15 min equilibration period. Competitive binding experiments were then carried out with different protein and ligand concentrations. The spectra were recorded 15 min after the ligand addition, and competition was monitored by following the decrease in intensity of fluorescence associated with the band of AMA bound to the protein. The apparent Kd values of the ligand-protein complexes were calculated as described in Brimau et al. ([17]).
(§2) We measured the affinity of the four native OBP isoforms for the five selected ligands under the same experimental conditions that were used previously for recombinant OBP isoforms ([17]). The four isoforms were first titrated with the fluorescent probe, AMA. OBP-native-iso3 was collected in smaller quantities than the 3 other isoforms and was used at a 1 μM concentration instead of 2.5 μM and saturated with 2 μM AMA, instead of 3.75 μM AMA. […] Two classes of isoforms, -iso1 and -iso2, bound the two fatty acids and not the steroids.
(§3) Figure 6 Competitive binding assays of five selected ligands of biological relevance to native OBP isoforms from S. scrofa. (A) OBP-native-iso1; (B) OBP-native-iso2; (C) OBP-native-iso3; and (D) OBP-native-iso4. Proteins were used at 2.5 μM (A,B,D) or 1 μM (C) concentration and were saturated with 3.75 μM (A,B,D) or 2 μM (C) of the fluorescent probe 1-AMA. Competitors were added at increasing concentration from 0 to 6 μM (A,B) or to 15 μM (C,D).

Assay [2] addresses T2, OBP-native-iso1 (Sus scrofa, UniProt P81245).
T2 construct: Proteins were gently extracted from RM of pre-pubertal males of S. scrofa; from tissue; host or cells: RM (respiratory mucosa) extract of pre-pubertal male pigs, purified by two rounds of anion-exchange HPLC
T2 sequence (P81245 1-157): T1 sequence (P81245 1-157)
The assay is described as above. The following applies: for IC50: OBP-native-iso1 2.5 μM saturated with 3.75 μM AMA, competitor 0 to 6 μM; for Kd: calculated dissociation constant from AMA competition. As for the experimental part: as §1, §2, §3

Assay [3] addresses T3, OBP-native-iso4 (Sus scrofa, UniProt P81245).
T3 sequence (P81245 1-157): T1 sequence (P81245 1-157)
Described as above. The note with it: for IC50: OBP-native-iso4 2.5 μM saturated with 3.75 μM AMA, competitor 0 to 15 μM; for binding of ligand (in words) / Kd: OBP-native-iso4; for Kd: calculated dissociation constant from AMA competition. The method, then: as §1, §2, §3

In assay [4] the target is T1, OBP-native-iso2. Nature of the assay: Fluorescence titration with the probe AMA. Format: binding. The note with it: OBP-native-iso2 at 2.5 μM, 50 mM Tris buffer pH 7.8, estimated. As for the experimental part: as §1, §2
Assay [5] deals with T4, OBP-native-iso3 (Sus scrofa, UniProt P81245).
T4 sequence (P81245 1-157): T1 sequence (P81245 1-157)
In words: Fluorescence titration with the probe AMA. Format: binding. The note with it: OBP-native-iso3 at 1 μM, 50 mM Tris buffer pH 7.8, estimated. As for the experimental part:
as §1, §2

In assay [6] the target is T2, OBP-native-iso1. In words: Fluorescence titration with the probe AMA. Format: binding. The note with it: OBP-native-iso1 at 2.5 μM, 50 mM Tris buffer pH 7.8, estimated. As for the experimental part: as §1, §2
Assay [7] deals with T3, OBP-native-iso4. Nature of the assay: Fluorescence titration with the probe AMA. The format is binding. The following applies: OBP-native-iso4 at 2.5 μM, 50 mM Tris buffer pH 7.8, estimated. The method, then: as §1, §2
For assay [8], the target named is T4, OBP-native-iso3. Nature of the assay: Competitive fluorescence binding assay with AMA as probe. The note with it: for binding of ligand (in words) / Kd: OBP-native-iso3; for IC50: OBP-native-iso3 1 μM saturated with 2 μM AMA, competitor 0 to 15 μM; for Kd: calculated dissociation constant from AMA competition. The method, then: as §1, §2, §3
The test system of assay [9] is OBP-native-iso4. Described as above. Also noted: species or system Sus scrofa. The note with it: ratio of Ka values. As for the experimental part:
as §1, §2, §3

A word on the IC50: it is the midpoint of a concentration-inhibition curve. One may read the Kd as the concentration at which binding is half-saturated.

As to `CCCCCCCCCCCCCCCC(=O)O` [Palmitic acid, hexadecanoic acid], the “binding of ligand (in words)” value with OBP-Pichia-iso3 was “not able to bind”. Also, the results for the half-maximal inhibitory concentration (IC50) at OBP-native-iso2 [1] (read-out: IC50), on OBP-native-iso1 [2] (read-out: IC50) and at OBP-native-iso4 [3] (read-out: IC50) were 1510 nM, 1030 nM and more than 15000 nM, respectively. The Kd on OBP-native-iso2 [1] (OBP-native-iso2) and on OBP-native-iso1 [2] (OBP-native-iso1) was 160 nM in each case.

For the compound `Nc1cccc2cc3ccccc3cc12` [AMA, 1-aminoanthracene], the Kd was 230 ± 20 nM at OBP-native-iso2 [4], 840 ± 80 nM at OBP-native-iso3 [5], 370 ± 20 nM on OBP-native-iso1 [6] and 500 ± 20 nM on OBP-native-iso4 [7].

For the compound `C[C@]12CC[C@H]3[C@@H](CCC4=CC(=O)CC[C@@]43C)[C@@H]1CC[C@@H]2O` [Testosterone, 17β-hydroxy-3-oxo-4-androstene, reference compound], the “binding of ligand (in words)” value on OBP-native-iso2 [1] (OBP-native-iso2), on OBP-native-iso3 [8], on OBP-native-iso1 [2] (OBP-native-iso1) and at OBP-native-iso4 [3] was “None of the four native isoforms bound” each time. Besides, the concentration for half-maximal inhibition (IC50) at OBP-native-iso2 [1], at OBP-native-iso3 [8], at OBP-native-iso1 [2] and on OBP-native-iso4 [3] was more than 6000 nM in each case.

Take `CCCCCCCCCCCCCC(=O)O` [Myristic acid, tetradecanoic acid]: the “binding of ligand (in words)” value with OBP-Pichia-iso3 is “to a lesser extent”. In addition, the IC50 at OBP-native-iso2 [1] (read-out: IC50) is 1030 nM; at OBP-native-iso1 [2] (read-out: IC50), 330 nM; on OBP-native-iso4 [3] (read-out: IC50), more than 15000 nM. Also, the values for the Kd on OBP-native-iso2 [1] (OBP-native-iso2) and at OBP-native-iso1 [2] (OBP-native-iso1) were 110 nM and 50 nM, respectively.

With `C[C@]12CCC(=O)C[C@@H]1CC[C@@H]1[C@@H]2CC[C@]2(C)C=CC[C@@H]12` [Androstenone, 3-keto-5α, 16-androstene], the half-inhibitory concentration (IC50) at OBP-native-iso2 [1] (read-out: IC50) is more than 6000 nM; at OBP-native-iso3 [8] (read-out: IC50), 1280 nM; on OBP-native-iso1 [2] (read-out: IC50), more than 6000 nM; on OBP-native-iso4 [3] (read-out: IC50), 1890 nM. The “binding of ligand (in words)” value on OBP-native-iso3 [8] and on OBP-native-iso4 [3] was “bind” throughout. Besides, the values for the Kd at OBP-native-iso3 [8] and at OBP-native-iso4 [3] were 230 nM and 220 nM, respectively.

Turning to `C[C@]12CC[C@@H](O)C[C@@H]1CC[C@@H]1[C@@H]2CC[C@]2(C)C=CC[C@@H]12` [Androstenol, 3α-hydroxy-5α-androst-16-ene], in the assay on OBP-native-iso4 [9], the “Ka value, OBP-native-iso4 compared with OBP-native-iso3” value is given as “three times greater”. Further, the 50% inhibitory concentration (IC50) on OBP-native-iso2 [1] (read-out: IC50) is more than 6000 nM; on OBP-native-iso3 [8] (read-out: IC50), 2590 nM; at OBP-native-iso1 [2] (read-out: IC50), more than 6000 nM; on OBP-native-iso4 [3] (read-out: IC50), 1430 nM. Besides, the “binding of ligand (in words)” value at OBP-native-iso3 [8] and on OBP-native-iso4 [3] was “bind” each time. Further, the Kd is 490 nM on OBP-native-iso3 [8] and 160 nM at OBP-native-iso4 [3].
